Test system: human LDL
Assay: Inhibition of LDL lipid peroxidation (cupric sulfate-induced, thiobarbituric acid assay)
Assay type: biochemical
Details: 250 μg human LDL, test compound 30 min at 42° C., cupric sulfate 12.5 μM, 37° C., 2.5 hours, read-out: ID50 (concentration of test compound required to inhibit 50% of LDL lipid peroxidation)
Protocol: The degree of inhibition of LDL lipid peroxidation was determined by the method of Yagi et al. [Vitamins 39, 105 (1968)].
A 0.5 mL solution containing 250 micrograms (μg) of human LDL was incubated with the test compound, in amounts varying from 0 to 30 μg, for 30 minutes at 42° C. To this mixture was added 1 mL of a cupric sulfate solution (final concentration 12.5 μM) and the mixture was incubated at 37° C. for 2.5 hours. The amount of peroxidation of LDL lipid was determined by the thiobarbituric acid assay. The concentration of test compound required to inhibit 50% of LDL lipid peroxidation (ID50) was determined.

SMILES | IC50
CC(C)(C)c1cc(SC[Si](C)(C)C)cc(C(C)(C)C)c1O [Compound A] | 2800 nM
CC(C)(C)c1cc(SC[Si](C)(C)c2ccccc2)cc(C(C)(C)C)c1O [Compound B] | 3000 nM

Source: patent publication US5532400A, “2,6-di-alkyl-4-silyl-phenols as antiatheroscelerotic agents” (Merrell Pharmaceuticals Inc., priority 1994, dated 1996)
